Experimental data published in US10596172B2 (Celgene CAR LLC, priority 2008, dated 2020).
Like-named read-outs stand apart in the source and are kept apart here.

How the values were obtained:
BTK [1] = target: T1, BTK (Homo sapiens (Human), UniProt Q06187); test: Omnia assay for potency assessment against BTK; assay type: biochemical; conditions: [BTK]=5 nm; read-out: BTK Inhibition
Procedure: Omnia Assay Protocol for Potency Assessment Against BTK
The modified BTK-optimized reagent conditions for the above protocol are:
[BTK]=5 nm, [ATP]=40 mM, [Y5-Sox]=10 mM (ATP KMapp˜36 mM).

BTK [2] = target: T1, BTK; test: BTK Ramos cellular assay (phosphorylation of BTK substrate PLCγ2); assay type: cell-based; conditions: Ramos cells, compound 1 hour, anti-human IgM stimulation, read-out: BTK Inhibition (BTK Ramos Cellular Inhibition Data)
Procedure: Ramos cells were grown in suspension in T225 flasks, spun down, resuspended in 50 ml serum-free media and incubated for 1 hour. […] Ramos cells were incubated with compound for 1 hour, washed again and resuspended in 100 ul serum-free media. Cells were then stimulated with 1 μg of goat F(ab′)2 Anti-Human IgM and incubated on ice for 10 minutes to activate B cell receptor signaling pathways. After 10 minutes, the cells were washed once with PBS and then lysed on ice with Invitrogen Cell Extraction buffer. 16 μg total protein from lysates were loaded on gel and blots were probed for phosphorylation of the BTK substrate PLCγ2.

[3] = test system: B cell lymphoma cell lines; test: B cell lymphoma proliferation assay; assay type: cell-based
ITK = ITK (Homo sapiens (Human), UniProt Q08881); test: Omnia assay for potency assessment against active forms of ITK kinase; assay type: biochemical; conditions: [ITK]=10 nM, [ATP]=25 μM, [Y6-Sox]=10 μM; read-out: ITK Inhibition
ITK, sequence (Q08881 whole entry): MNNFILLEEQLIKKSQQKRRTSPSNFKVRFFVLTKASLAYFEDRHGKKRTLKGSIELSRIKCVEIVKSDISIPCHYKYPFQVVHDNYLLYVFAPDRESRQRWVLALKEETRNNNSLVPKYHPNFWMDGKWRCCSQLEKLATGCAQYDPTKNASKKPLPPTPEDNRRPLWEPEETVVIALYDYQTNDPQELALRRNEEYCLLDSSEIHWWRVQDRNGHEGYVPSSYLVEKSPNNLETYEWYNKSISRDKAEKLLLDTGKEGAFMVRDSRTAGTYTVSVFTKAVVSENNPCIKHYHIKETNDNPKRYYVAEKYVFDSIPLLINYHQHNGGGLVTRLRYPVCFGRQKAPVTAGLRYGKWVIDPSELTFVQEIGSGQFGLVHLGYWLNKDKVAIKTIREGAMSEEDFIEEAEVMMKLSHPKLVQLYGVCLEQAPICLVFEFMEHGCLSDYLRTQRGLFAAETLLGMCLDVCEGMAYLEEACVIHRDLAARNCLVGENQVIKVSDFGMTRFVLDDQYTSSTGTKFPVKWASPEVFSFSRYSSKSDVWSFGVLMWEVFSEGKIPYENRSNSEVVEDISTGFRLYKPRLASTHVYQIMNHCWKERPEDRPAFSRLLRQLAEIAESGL
Procedure: [ITK]=10 nM, [ATP]=25 μM, [Y6-Sox]=10 μM (ATP KMapp=33 μM).

EGFR-WT = EGFR-WT (Homo sapiens (Human), UniProt P00533); test: Omnia assay for potency assessment against EGFR (WT); assay type: biochemical; conditions: wild-type EGFR; read-out: EGFR Wild Type Inhibition
EGFR-WT, sequence (P00533 25-1210): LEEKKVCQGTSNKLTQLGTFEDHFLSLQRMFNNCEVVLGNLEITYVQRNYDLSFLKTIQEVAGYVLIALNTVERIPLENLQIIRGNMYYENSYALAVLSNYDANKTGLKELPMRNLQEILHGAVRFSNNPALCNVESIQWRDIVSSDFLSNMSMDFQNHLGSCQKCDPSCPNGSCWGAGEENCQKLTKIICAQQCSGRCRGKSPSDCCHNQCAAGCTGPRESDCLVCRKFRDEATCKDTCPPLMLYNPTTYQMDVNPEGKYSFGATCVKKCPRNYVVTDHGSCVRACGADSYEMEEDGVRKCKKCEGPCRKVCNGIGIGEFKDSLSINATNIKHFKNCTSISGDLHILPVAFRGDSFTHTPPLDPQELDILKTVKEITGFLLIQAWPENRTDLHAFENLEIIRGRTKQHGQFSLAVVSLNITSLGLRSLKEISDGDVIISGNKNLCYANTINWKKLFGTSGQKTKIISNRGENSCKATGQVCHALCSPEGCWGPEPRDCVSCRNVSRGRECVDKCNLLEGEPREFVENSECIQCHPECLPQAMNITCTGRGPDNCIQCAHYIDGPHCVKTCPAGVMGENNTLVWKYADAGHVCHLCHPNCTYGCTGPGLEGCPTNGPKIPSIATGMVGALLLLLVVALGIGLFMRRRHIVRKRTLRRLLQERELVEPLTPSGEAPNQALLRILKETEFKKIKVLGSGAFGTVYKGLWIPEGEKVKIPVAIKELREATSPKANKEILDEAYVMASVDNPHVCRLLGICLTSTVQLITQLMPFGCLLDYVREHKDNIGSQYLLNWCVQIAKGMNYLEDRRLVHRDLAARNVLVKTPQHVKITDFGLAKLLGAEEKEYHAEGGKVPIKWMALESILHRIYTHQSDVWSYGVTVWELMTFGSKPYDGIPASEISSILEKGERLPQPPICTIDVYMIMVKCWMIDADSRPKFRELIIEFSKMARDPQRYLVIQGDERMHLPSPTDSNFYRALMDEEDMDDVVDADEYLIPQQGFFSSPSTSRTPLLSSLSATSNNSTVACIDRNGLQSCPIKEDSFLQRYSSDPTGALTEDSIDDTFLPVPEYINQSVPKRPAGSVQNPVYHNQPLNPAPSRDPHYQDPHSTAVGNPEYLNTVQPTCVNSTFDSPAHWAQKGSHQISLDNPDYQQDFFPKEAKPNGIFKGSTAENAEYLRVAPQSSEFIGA

Erbb4 kinase domain = Erbb4 kinase domain (Homo sapiens (Human), UniProt Q15303); test: Mass spectrometry for ERBB4; assay type: binding; conditions: 60 minutes at 10-fold excess of compound
Erbb4 kinase domain, sequence (Q15303 718-985): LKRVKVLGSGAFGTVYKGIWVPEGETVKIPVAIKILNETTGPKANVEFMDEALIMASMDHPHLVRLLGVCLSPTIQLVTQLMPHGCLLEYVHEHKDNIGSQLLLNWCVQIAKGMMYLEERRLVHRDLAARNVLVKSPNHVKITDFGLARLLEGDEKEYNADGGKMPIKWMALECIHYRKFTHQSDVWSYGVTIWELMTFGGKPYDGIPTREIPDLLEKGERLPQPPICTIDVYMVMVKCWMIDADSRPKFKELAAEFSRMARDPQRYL
Procedure: Erbb4 kinase domain (Upstate) was incubated with compound for 60 minutes at 10-fold excess of compound I-4 and I-11 to protein. 1 μl aliquots of the samples (total volume of 4.24 ul) were diluted with 10 μl of 0.1% TFA prior to micro C4 ZipTipping directly onto the MALDI target using Sinapinic acid as the desorption matrix (10 mg/ml in 0.1% TFA:Acetonitrile 50:50). For intact protein mass measurement the instrument was set in Linear mode using a pulsed extraction setting of 16,952 for the myoglobin standard used to calibrate the instrument (Shimadzu Axima TOF^2).
Intact ErbB4 protein occurs at MH+ of 35850 with corresponding sinapinic (matrix) adducts occurring about 200 Da higher. A stoichiometric incorporation of the test compound (I-4 and I-11) (Mw of 410 Da) produced a new mass peak which is approximately 410 Da higher (MH+ of 36260).

JAK3 [4] = target: T2, JAK3 (Homo sapiens (Human), UniProt P52333); test: Mass spectrometry for Janus-3 kinase (JAK3); assay type: binding; conditions: 3 hrs at 10x excess, tryptic digest
T2 sequence (P52333 whole entry): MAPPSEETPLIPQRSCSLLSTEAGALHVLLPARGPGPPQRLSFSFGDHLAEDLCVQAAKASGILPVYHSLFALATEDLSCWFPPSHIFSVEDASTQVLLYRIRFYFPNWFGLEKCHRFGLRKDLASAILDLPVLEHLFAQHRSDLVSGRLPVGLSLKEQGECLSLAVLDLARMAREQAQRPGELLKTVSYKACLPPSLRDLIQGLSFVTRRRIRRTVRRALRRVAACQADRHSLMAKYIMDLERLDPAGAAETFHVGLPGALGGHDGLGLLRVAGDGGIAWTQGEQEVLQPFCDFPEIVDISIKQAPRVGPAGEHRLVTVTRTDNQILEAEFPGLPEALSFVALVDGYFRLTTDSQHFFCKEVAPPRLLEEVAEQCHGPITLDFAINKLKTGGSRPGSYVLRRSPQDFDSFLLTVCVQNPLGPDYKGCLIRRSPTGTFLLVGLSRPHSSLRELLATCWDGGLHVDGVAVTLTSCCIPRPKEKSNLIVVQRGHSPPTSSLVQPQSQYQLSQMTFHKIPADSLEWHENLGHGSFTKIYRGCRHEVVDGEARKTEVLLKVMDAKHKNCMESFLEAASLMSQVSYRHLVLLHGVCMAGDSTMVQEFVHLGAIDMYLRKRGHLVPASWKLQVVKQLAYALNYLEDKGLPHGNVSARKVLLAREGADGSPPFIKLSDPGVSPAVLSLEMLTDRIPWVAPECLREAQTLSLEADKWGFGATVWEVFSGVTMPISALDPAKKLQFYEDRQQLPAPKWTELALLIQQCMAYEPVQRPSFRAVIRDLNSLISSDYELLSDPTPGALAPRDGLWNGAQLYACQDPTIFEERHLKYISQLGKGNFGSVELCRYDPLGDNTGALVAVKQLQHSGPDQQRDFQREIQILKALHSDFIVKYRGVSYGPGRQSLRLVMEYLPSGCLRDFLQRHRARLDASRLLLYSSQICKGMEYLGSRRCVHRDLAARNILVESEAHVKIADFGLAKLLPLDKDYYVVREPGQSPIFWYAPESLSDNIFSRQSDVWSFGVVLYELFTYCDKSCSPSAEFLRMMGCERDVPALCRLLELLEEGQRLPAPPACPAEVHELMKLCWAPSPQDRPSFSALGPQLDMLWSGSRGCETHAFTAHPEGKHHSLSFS
Procedure: (§1) JAK3 kinase (33 pmols; Invitrogen) was incubated with (I-7) (327 pmols) for 3 hrs at 10× excess prior to tryptic digestion. Iodoacetamide was used as the alkylating agent after compound incubation. For tryptic digests a 5 ul aliquot (5.5 pmols) was diluted with 15 ul of 0.1% TFA prior to micro C18 Zip Tipping directly onto the MALDI target using alpha cyano-4-hydroxy cinnamic acid as the matrix (5 mg/ml in 0.1% TFA:Acetonitrile 50:50).
As depicted in FIG. 11, the expected peptide ([…]) to be modified was immediately evident as the largest peak at MH+ of 1725.88. This is the mass to be expected when compound I-7, with an adduct mass of 345.16, is added to the peptide mass of 1380.70. […] There was also evidence for a number of other modified peptides, however, their signals were low.
To further verify the presence of the modified peptides with compound I-7, the peptides at MH+ of 1725.88 and 1118.55 were subjected to PSD (MS/MS) analysis. A correlational analysis with the homo sapien database identified the correct peptides as being modified by I-7.
For tryptic digests the instrument was set in Reflectron mode with a pulsed extraction setting of 2200. Calibration was done using the Laser Biolabs Pep Mix standard ([…], 1296.69, 1672.92, 2093.09, 2465.20). […]

JAK3 [5] = target: T2, JAK3; test: Omnia assay for potency assessment against the active form of JAK3; assay type: biochemical; conditions: read-out: JAK3 Inhibition
BTK [6] = target: T1, BTK; test: Washout experiment with Ramos cells; assay type: cell-based; conditions: 100 nM compound 1 hour, then washout
Procedure: Ramos cells were serum starved for one hour in RPMI media +1% glutamine at 37° C. After starvation, Ramos cells were treated with 100 nM compound diluted in serum free RPMI media for 1 hour. After compound treatment, the media was removed and cells were washed with compound-free media. Subsequently, Ramos cells were washed every 2 hours and resuspended in fresh compound-free media. Cells were collected at specified timepoints, treated with 1 ug anti-human IgM (Southern Biotech cat #2022-01) for 10 minutes on ice to induce BCR signaling and then washed in PBS. Ramos cells were then lysed in Cell Extraction Buffer (Invitrogen FNN0011) supplemented with Roche complete protease inhibitor tablets (Roche 11697498001) and phosphatase inhibitors (Roche 04 906 837 001) and 18 ug total protein lysate was loaded in each lane. Inhibition of BTK kinase activity was assayed by measuring its substrate (PLCγ2) phosphorylation by western blot with phospho-specific antibodies from Cell Signaling Technologies cat #3871. The results of this experiment with compounds I-2, I-4 and I-7 are depicted in FIGS. 1, 2 and 3.

TEC kinase = TEC kinase (Homo sapiens (Human), UniProt P42680); test: Mass spectrometry for TEC kinase (tryptic digest); assay type: binding; conditions: 3 hrs at 10x excess
TEC kinase, sequence (P42680 whole entry): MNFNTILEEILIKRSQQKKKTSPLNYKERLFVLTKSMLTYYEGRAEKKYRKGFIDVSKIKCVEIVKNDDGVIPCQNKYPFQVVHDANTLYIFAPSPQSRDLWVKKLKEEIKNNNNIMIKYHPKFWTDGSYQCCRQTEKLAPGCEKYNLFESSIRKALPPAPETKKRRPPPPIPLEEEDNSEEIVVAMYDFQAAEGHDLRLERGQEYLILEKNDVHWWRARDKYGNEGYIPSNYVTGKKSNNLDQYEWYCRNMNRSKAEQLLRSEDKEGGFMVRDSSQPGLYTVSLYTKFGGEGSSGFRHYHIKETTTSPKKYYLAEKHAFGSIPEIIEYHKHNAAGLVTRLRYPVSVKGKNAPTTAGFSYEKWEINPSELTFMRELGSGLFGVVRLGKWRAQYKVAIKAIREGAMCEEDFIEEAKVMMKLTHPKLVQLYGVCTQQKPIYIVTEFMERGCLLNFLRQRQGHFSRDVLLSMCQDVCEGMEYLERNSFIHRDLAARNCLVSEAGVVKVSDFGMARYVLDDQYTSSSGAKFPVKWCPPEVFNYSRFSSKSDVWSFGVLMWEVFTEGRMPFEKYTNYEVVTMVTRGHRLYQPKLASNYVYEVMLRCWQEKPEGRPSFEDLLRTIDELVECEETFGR
Procedure: as §1, with “TEC” for “JAK3”, “(45” for “(33”, “(I-2) (450” for “(I-7) (327”, “incubation. […]” for “incubation.”, “(7.5” for “(5.5”
As depicted in FIG. 6, the expected peptide ([…]) to be modified was immediately evident after reaction with I-2 (MI mass of 359.17 Da) at MH+ of 1294.72. The peptide was also quite evident in the control sample as modified by Iodacetamide at MH+ of 992.56. […] There was no evidence of other modified peptides.
For tryptic digests the instrument was set in Reflectron mode with a pulsed extraction setting of 2200. Calibration was done using the Laser Biolabs Pep Mix standard ([…], 1296.69, 1672.92, 2093.09, 2465.20). For CID/PSD analysis the peptide was selected using cursors to set ion gate timing and fragmentation occurred at a laser power about 20% higher and He was used as the collision gas for CID. Calibration for fragments was done using the P14R fragmentation calibration for the Curved field Reflectron.
as §1, with “TEC” for “JAK3”, “(45” for “(33”, “(I-4) (450” for “(I-7) (327”, “incubation. […]” for “incubation.”, “(7.5” for “(5.5”
As depicted in FIG. 7, the expected peptide ([…]) to be modified was immediately evident at MH+ of 1355.72. This is the mass to be expected when compound I-4, with an adduct mass of 420.21, is added to the peptide mass of 935.51. The peptide was also quite evident in the control sample as modified by Iodacetamide at MH^+ of 992.56. […] There was no evidence of other modified peptides. […]

[7] = Homo sapiens, DOHH-2, DOHH2 B cell lymphoma cell line, read-out: EC50 (μM) DOHH2

T1 sequence (Q06187 whole entry): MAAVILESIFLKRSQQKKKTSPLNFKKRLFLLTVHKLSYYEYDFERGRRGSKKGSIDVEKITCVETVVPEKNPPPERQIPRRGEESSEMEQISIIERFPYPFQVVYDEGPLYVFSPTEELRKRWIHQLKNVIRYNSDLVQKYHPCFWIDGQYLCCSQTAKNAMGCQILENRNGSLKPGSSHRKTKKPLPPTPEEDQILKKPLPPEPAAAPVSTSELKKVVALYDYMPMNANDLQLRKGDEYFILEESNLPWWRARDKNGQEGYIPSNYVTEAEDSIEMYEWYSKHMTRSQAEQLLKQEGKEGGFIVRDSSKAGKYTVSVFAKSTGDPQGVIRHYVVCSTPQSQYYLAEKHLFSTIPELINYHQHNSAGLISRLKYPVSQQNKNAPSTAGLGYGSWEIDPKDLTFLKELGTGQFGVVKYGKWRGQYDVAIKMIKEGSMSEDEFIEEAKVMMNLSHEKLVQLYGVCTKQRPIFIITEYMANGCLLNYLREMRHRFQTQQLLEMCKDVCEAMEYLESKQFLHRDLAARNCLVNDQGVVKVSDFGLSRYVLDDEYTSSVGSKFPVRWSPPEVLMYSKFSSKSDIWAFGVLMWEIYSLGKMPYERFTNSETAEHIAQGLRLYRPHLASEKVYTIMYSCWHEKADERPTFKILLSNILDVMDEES

Q: Which IC50 (BTK [1]) does the source give for C=CC(=O)Nc1cccc(Oc2nc(Nc3cccc(OC)c3)ncc2C(N)=O)c1 [Compound I-178, 4-(3-acrylamidophenoxy)-2-(3-methoxyphenylamino)pyrimidine-5-carboxylic Acid Amide] here?
A: Its IC50 is under 10 nM.

Q: What about the IC50 (BTK [2]) of the same compound?
A: The IC50 was 10 to 100 nM.

Q: And the EC50 ([3]; DHL4 B cell lymphoma cell line, read-out: EC50 (μM) DHL4)?
A: The EC50 was over 10 µM.

Q: What about the EC50 [3, 7] of the same compound?
A: Its EC50 is 1 to 10 µM.

Q: What about the EC50 ([3]; Homo sapiens, WSUDLCL2, WSU-DLCL2 B cell lymphoma cell line, read-out: EC50 (μM) WSU-DLCL2) of the same compound?
A: The EC50 was over 10 µM.

Q: What about the IC50 (ITK) of the same compound?
A: The IC50 was 10 to 100 nM.

Q: And the IC50 (EGFR-WT)?
A: The IC50 was under 10 nM.

Q: With Cc1cnc(Nc2cccc(S(N)(=O)=O)c2)nc1Nc1ccc2c(c1)CCN(C(=O)CCl)C2 [Compound I-11, 3-(4-(2-(2-chloroacetyl)-1,2,3,4-tetrahydroisoquinolin-6-ylamino)-5-methylpyrimidin-2-ylamino)benzenesulfonamide] as the compound, how does the “covalent modification of ErbB4 by mass spectrometry” value (Erbb4 kinase domain) read?
A: Its value is “covalent modification”.

Q: What about the “covalent modification of JAK3 peptide LVMEYLPSGCLR (Cys909) by mass spectrometry” value (JAK3 [4]) of the same compound?
A: Its value is “measurable modification”.

Q: What about the IC50 (JAK3 [5]) of the same compound?
A: Its IC50 is under 10 nM.

Q: Which IC50 (BTK [1]) does the source give for C=CC(=O)N1CCC[C@@H](Oc2nc(Nc3ccc(OC)nc3)ncc2F)C1 [Compound I-180, (R)-1-(3-(5-fluoro-2-(6-methoxypyridin-3-ylamino)pyrimidin-4-yloxy)piperidin-1-yl)prop-2-en-1-one] here?
A: The IC50 was under 10 nM.

Q: What about the IC50 (BTK [2]) of the same compound?
A: Its IC50 is 100 to 1000 nM.

Q: What about the IC50 (ITK) of the same compound?
A: Its IC50 is 100 to 1000 nM.

Q: What about the IC50 (EGFR-WT) of the same compound?
A: Its IC50 is 100 to 1000 nM.

Q: For C=CC(=O)Nc1cccc(Oc2nc(Nc3cccc(OC)c3)ncc2C(=O)NC2CC2)c1 [Compound I-177, 4-(3-acrylamidophenoxy)-2-(3-methoxyphenylamino)-pyrimidine-5-carboxylic Acid Cyclopropylamide], which IC50 (BTK [1]) is on record?
A: The IC50 was under 10 nM.

Q: What about the IC50 (BTK [2]) of the same compound?
A: Its IC50 is 100 to 1000 nM.

Q: And the IC50 (ITK)?
A: Its IC50 is 10 to 100 nM.

Q: What about the IC50 (EGFR-WT) of the same compound?
A: Its IC50 is under 10 nM.

Q: With C=CC(=O)Nc1cccc(Nc2ncc(C)c(Nc3cccc(C)c3)n2)c1 [Compound I-2, N-(3-(5-methyl-4-(m-tolylamino)pyrimidin-2-ylamino)phenyl)acrylamide] as the compound, how does the “BTK Inhibition Type” value (BTK [6]) read?
A: Its value is “irreversible”.

Q: And the EC50 [3, 7]?
A: The EC50 was 0.1 to 1 µM.

Q: And the “covalent modification of TEC kinase peptide GCLLNFLR (Cys449) by mass spectrometry” value (TEC kinase)?
A: Its value is “reaction was complete”.

Q: What about the IC50 (JAK3 [5]) of the same compound?
A: The IC50 was under 10 nM.
